Data from patent US5631263A, “Use of delta opioid receptor antagonists to treat immunoregulatory disorders” (Minneapolis Medical Research Foundation, priority 1995, dated 1997).
Counter-ions that a name gives are not always drawn.

How the values were obtained:
[1] = target: T1, δ opioid receptor (Mus musculus, UniProt P32300); experiment: antagonism of DADLE on MVD preparations (Example 7); format: cell-based; conditions: for IC50 ratio (DADLE): MVD, 100 nM of each compound, NTI = 20 nM, 15 min
T1 construct: Both vasa deferentia were dissected out of mice; from tissue; host or cells: mouse vas deferens (isolated, electrically stimulated)
Description: 2. Mouse Vas Deferens (MVD). […] The organ bath was maintained at 37° C.
Concentration-response curves were obtained in the absence (control) and the presence of the antagonist are expressed as IC50 values. […] Therefore, a high IC50 ratio represents a correspondingly high degree of antagonism at a particular receptor. […] Therefore, a low Ke represents a correspondingly high degree of binding at a particular receptor.

[2] = target: kappa opioid receptors; set-up: key to Ke, EK: No agonist antagonism observed; conditions: GPI, cited from earlier work; for Kb: agonist ethylketazocine, antagonist 100 or 200 nM, 15 min, read-out: Ke, EK
[3] = target: mu opioid receptors; set-up: key to Ke, M: No agonist antagonism observed; conditions: GPI, cited from earlier work; for Kb: read-out: Ke, M (morphine), agonist morphine, antagonist 100 or 200 nM, 15 min
[4] = target: T2, delta opioid receptors (Mus musculus, UniProt P32300); set-up: key: No agonist antagonism observed; conditions: MVD; compound 7 tested at 5 nM or less; cited from earlier work
[5] = system: mouse vas deferens (MVD) and guinea pig ileum (GPI) preparations; conditions: cited from earlier work
[6] = target: T2, delta opioid receptors; experiment: antagonism of DADLE in the mouse vas deferens (MVD) preparation; conditions: compared with 1 or its congeners
Description: Mouse Vas Deferens (MVD). […] Both vasa deferentia were dissected out of mice and mounted singly through two platinum ring electrodes in a 10 ml organ bath. The bath contained Krebs bicarbonate solution that was continuously bubbled with 95% O2 and 5% CO2. The organ bath was maintained at 37° C. The tissue was attached to an isometric transducer and stimulated transmurally with rectangular pulses (0.1 Mz, 1 ms duration, supramaximal voltage). Drugs were added cumulatively to the bath in 10- to 50-μL amounts and washed out after noting their maximum effect.
The compounds were tested in vitro on the mouse vas deferens (MVD) and guinea pig ileum (GPI) preparations. […] The IC50 value was divided by the control IC50 value in the same tissue, and this IC50 ratio (DR) was employed to calculate the Ke value using the equation Ke=[antagonist]/(DR-1).

[7] = target: μ opioid receptor (Cavia porcellus, UniProt A0ACM8Q262); experiment: antagonism of morphine in the GPI (Example 7); format: cell-based, guinea pig; conditions: morphine as agonist, read-out: Ke, μ (Table VII)
Description: 1. Guinea Pig Ileal Longitudinal Muscle (GPI). Ilea from guinea pigs were taken approximately 10 cm from the ileocaecal junction, and a strip of longitudinal muscle with the myenteric plexus attached was prepared by method of Rang et al., Brit. J. Pharmacol., 22, 356 (1964), the disclosure of which is incorporated by reference herein. A 1 cm portion of this strip was then mounted between two platinum electrodes placed in a 10 ml organ bath and connected to an isometric transducer. Contractions were recorded on a polygraph. […] The organ bath was maintained at 36°-37° C. The longitudinal muscle strip was allowed to equilibrate with continuous stimulation for a minimum of 90 min.

[8] = system: guinea pig ileum (GPI); conditions: standard result; cited from earlier work
[9] = compound 7 tested at 5 nM or less

T1 sequence (P32300 whole entry): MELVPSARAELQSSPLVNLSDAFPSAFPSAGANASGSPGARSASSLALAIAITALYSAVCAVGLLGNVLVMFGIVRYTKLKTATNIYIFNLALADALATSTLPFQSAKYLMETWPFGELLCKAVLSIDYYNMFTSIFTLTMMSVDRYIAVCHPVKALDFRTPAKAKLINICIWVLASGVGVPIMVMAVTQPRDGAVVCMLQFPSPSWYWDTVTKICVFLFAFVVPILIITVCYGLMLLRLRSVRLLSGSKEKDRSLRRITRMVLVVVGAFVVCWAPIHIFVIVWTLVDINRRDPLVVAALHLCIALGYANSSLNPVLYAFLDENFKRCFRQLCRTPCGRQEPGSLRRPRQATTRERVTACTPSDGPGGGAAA
T2 sequence (P32300 whole entry): as above
Sequence of μ opioid receptor (A0ACM8Q262 1-400): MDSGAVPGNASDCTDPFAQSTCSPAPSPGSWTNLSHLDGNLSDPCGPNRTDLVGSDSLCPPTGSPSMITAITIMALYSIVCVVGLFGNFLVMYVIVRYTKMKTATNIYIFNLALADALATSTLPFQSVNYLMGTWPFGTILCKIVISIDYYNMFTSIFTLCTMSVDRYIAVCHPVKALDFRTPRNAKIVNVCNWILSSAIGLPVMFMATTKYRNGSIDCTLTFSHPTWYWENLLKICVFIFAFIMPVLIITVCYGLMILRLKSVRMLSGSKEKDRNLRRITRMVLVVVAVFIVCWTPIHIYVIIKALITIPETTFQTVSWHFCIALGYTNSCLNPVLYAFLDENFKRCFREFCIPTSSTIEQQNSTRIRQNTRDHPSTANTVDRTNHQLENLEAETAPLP

O=C1/C(=C/c2cccc(F)c2)C[C@@]2(O)[C@H]3Cc4ccc(O)c5c4[C@@]2(CCN3CC2CC2)[C@H]1O5 [IIh]
Kb [1]: 14 nM | IC50 ratio (DADLE) [1]: 7.87

Oc1ccc2c3c1O[C@H]1c4[nH]c5ccc(F)cc5c4C[C@@]4(O)[C@@H](C2)N(CC2CC2)CC[C@]314 [Compound 3]
Kb [2]: 46.2 nM | Kb [3]: 61.7 nM

O=[N+]([O-])c1ccc2[nH]c3c(c2c1)C[C@@]1(O)[C@H]2Cc4ccc(O)c5c4[C@@]1(CCN2CC1CC1)[C@H]3O5 [Compound 6]
Kb [2]: ≥ 200 nM | Kb [3]: 92 nM

COc1cccc2c3c([nH]c12)[C@@H]1Oc2c(O)ccc4c2[C@@]12CCN(CC1CC1)[C@H](C4)[C@]2(O)C3 [Compound 14]
Kb [3]: 35 nM

O=C1/C(=C/c2ccccc2F)C[C@@]2(O)[C@H]3Cc4ccc(O)c5c4[C@@]2(CCN3CC2CC2)[C@H]1O5 [IIi]
Kb [1]: 20 nM | IC50 ratio (DADLE) [1]: 6.01

COc1ccc(/C=C2\C[C@@]3(O)[C@H]4Cc5ccc(O)c6c5[C@@]3(CCN4CC3CC3)[C@@H](O6)C2=O)cc1 [IIc]
Kb [1]: 22 nM | IC50 ratio (DADLE) [1]: 5.52

Cc1ccc2[nH]c3c(c2c1)C[C@@]1(O)[C@H]2Cc4ccc(O)c5c4[C@@]1(CCN2CC1CC1)[C@H]3O5 [Compound 5]
Kb [2]: > 250 nM | Kb [3]: > 160 nM

O=C1/C(=C/c2ccc([N+](=O)[O-])cc2)C[C@@]2(O)[C@H]3Cc4ccc(O)c5c4[C@@]2(CCN3CC2CC2)[C@H]1O5 [IIa, E-7-(4-Nitrobenzylideno)naltrexone hydrochloride]
Kb [1]: 111 nM | IC50 ratio (DADLE) [1]: 1.90

Oc1ccc2c3c1O[C@H]1c4[nH]c5cccc(F)c5c4C[C@@]4(O)[C@@H](C2)N(CC2CC2)CC[C@]314 [Compound 10]
Kb [2]: > 170 nM | Kb [3]: > 125 nM

O=C1/C(=C/c2cccc([N+](=O)[O-])c2)C[C@@]2(O)[C@H]3Cc4ccc(O)c5c4[C@@]2(CCN3CC2CC2)[C@H]1O5 [IIb]
Kb [1]: 20 nM | IC50 ratio (DADLE) [1]: 5.97

O=C1/C(=C/c2cccc3ccccc23)C[C@@]2(O)[C@H]3Cc4ccc(O)c5c4[C@@]2(CCN3CC2CC2)[C@H]1O5 [IIl]
Kb [1]: 8.5 nM | IC50 ratio (DADLE) [1]: 12.7

Cc1cccc2c3c([nH]c12)[C@@H]1Oc2c(O)ccc4c2[C@@]12CCN(CC1CC1)[C@H](C4)[C@]2(O)C3 [Compound 13]
Kb [2]: > 330 nM | Kb [3]: 19.1 nM

Oc1ccc2c3c1O[C@H]1c4[nH]c5c(F)cccc5c4C[C@@]4(O)[C@@H](C2)N(CC2CC2)CC[C@]314 [Compound 11]
Kb [2]: > 330 nM | Kb [3]: 5.3 nM

O=C1/C(=C/c2ccc(F)cc2)C[C@@]2(O)[C@H]3Cc4ccc(O)c5c4[C@@]2(CCN3CC2CC2)[C@H]1O5 [IIg]
Kb [1]: 77 nM | IC50 ratio (DADLE) [1]: 2.29

CN1CC[C@]23c4c5ccc(O)c4O[C@H]2c2[nH]c4ccccc4c2C[C@@]3(O)[C@H]1C5 [Compound 7]
Ke, DADLE [4]: e | Ke, EK [2, 9]: e | antagonist activity of compound 7 ([5]; at 5 nM): inactive | agonist activity ([5]; in words): partial agonist activity | Ke, M [3, 9]: e

Oc1ccc2[nH]c3c(c2c1)C[C@@]1(O)[C@H]2Cc4ccc(O)c5c4[C@@]1(CCN2CC1CC1)[C@H]3O5 [Compound 9]
Kb [2]: 68.5 nM | Kb [3]: 27.2 nM

Oc1ccc2c3c1O[C@H]1c4nc5ccccc5cc4C[C@@]4(O)[C@@H](C2)N(CC2CC2)CC[C@]314 [Compound 17]
Kb [2]: 16.3 nM | delta antagonist potency / selectivity in words [6]: A similar relationship was observed | Kb [3]: 11.3 nM

Oc1ccc2c3c1O[C@H]1c4oc5ccccc5c4C[C@@]4(O)[C@@H](C2)N(CC2CC2)CC[C@]314 [Compound 8, (17-cyclopropylmethyl)-6,7-dehydro-3,14β-dihydroxy-4,5α-epoxy-6,7-2',3'-benzo[b]furanomorphinan]
Kb [2]: 50.8 nM | delta antagonist potency / selectivity in words [6]: less potent and less selective than 1 as a delta antagonist, nevertheless retains substantial delta antagonist activity | Kb [3]: 30.8 nM

Oc1ccc2c3c1O[C@H]1c4nc5ccccc5nc4C[C@@]4(O)[C@@H](C2)N(CC2CC2)CC[C@]314 [Compound 16]
Kb [2]: 13.4 nM | delta antagonist potency / selectivity in words [6]: A similar relationship was observed | Kb [3]: 6.1 nM

O=C1/C(=C/c2ccccc2Cl)C[C@@]2(O)[C@H]3Cc4ccc(O)c5c4[C@@]2(CCN3CC2CC2)[C@H]1O5 [IIj]
Kb [1]: 0.76 nM | IC50 ratio (DADLE) [1]: 130

COc1ccccc1/C=C1\C[C@@]2(O)[C@H]3Cc4ccc(O)c5c4[C@@]2(CCN3CC2CC2)[C@@H](O5)C1=O [IIe]
Kb [1]: 0.84 nM | IC50 ratio (DADLE) [1]: 120

O=C1CC[C@@]2(O)[C@H]3Cc4ccc(O)c5c4[C@@]2(CCN3CC2CC2)[C@H]1O5 [Naltrexone, naltrexone, reference compound]
Kb [7]: 1 nM | block of morphine's effects [8]: block morphine's effects

COc1ccc2[nH]c3c(c2c1)C[C@@]1(O)[C@H]2Cc4ccc(O)c5c4[C@@]1(CCN2CC1CC1)[C@H]3O5 [Compound 4]
Kb [2]: 12.6 nM | Kb [3]: 63 nM

Cn1c2c(c3ccccc31)C[C@@]1(O)[C@H]3Cc4ccc(O)c5c4[C@@]1(CCN3CC1CC1)[C@H]2O5 [Compound 2]
Kb [2]: 22.2 nM | Kb [3]: 12.5 nM

O=C1/C(=C/c2ccc3ccccc3c2)C[C@@]2(O)[C@H]3Cc4ccc(O)c5c4[C@@]2(CCN3CC2CC2)[C@H]1O5 [IIm]
Kb [1]: 9.4 nM | IC50 ratio (DADLE) [1]: 11.6
